Tests used:
[1] = solubility of ODV succinate forms; type: physicochemical; settings: novel hydrate form of the present invention
[2] = converted into form III on milling; per U.S. Pat. No. 6,673,838; cited from earlier work
[3] = in vivo; cited from earlier work

Structure (SMILES): CN(C)CC(c1ccc(O)cc1)C1(O)CCCCC1.O=C(O)CCC(=O)O (stereo not drawn) [novel hydrate form of ODV succinate, O-desmethyl venlafaxine succinate]
- solubility [1]: 55 mg/mL

Structure (SMILES): CN(C)CC(c1ccc(O)cc1)C1(O)CCCCC1.O.O=C(O)CCC(=O)O (stereo not drawn) [ODV succinate monohydrate form I]
- stability of polymorphic form on milling [2]: unstable

Structure (SMILES): CN(C)CC(c1ccc(O)cc1)C1(O)CCCCC1.O=C(O)CCC(=O)O (stereo not drawn) [ODV succinate, O-desmethyl venlafaxine succinate]
- absorption in the gastrointestinal tract [3]: well absorbed

Source: patent US20100035994A1, “NOVEL HYDRATE FORM OF O-DESMETHYL VENLAFAXINE SUCCINATE” (priority 2006, published 2010)
